Starred links: 1 amine or outer side, 2 acyl side, 3 side chain; linkers in the order of their positions; H or OH if unused. Residues, ends and D or L forms follow the SMILES beside them. *: point of attachment. AMC = Cc1cc(=O)oc2cc(N*)ccc12; Suc = O=C(CCC(=O)[*:2])[*:1]; Cbz = O=C(OCc1ccccc1)*; Boc = CC(C)(C)OC(=O)*
Target: T1, proteasome (Rattus norvegicus, UniProt P28073+P28075+Q9JHW0)
T1 construct: gene Psmb5; native, not purified; soluble fraction (100,000 g supernatant) of liver, brain or lens homogenate; 20S/26S and immunoproteasome content not resolved; with Proteasome subunit beta type-1; Proteasome subunit beta type-2; Proteasome subunit beta type-3; Proteasome subunit beta type-4; Proteasome subunit alpha type-1; Proteasome subunit alpha type-2; Proteasome subunit alpha type-3; Proteasome subunit alpha type-4; Proteasome subunit alpha type-5; Proteasome subunit alpha type-6; Proteasome subunit alpha type-7
Experiment: fluorogenic AMC release, Lineweaver-Burk plot
Type: biochemical
Details: liver soluble fraction, Tris pH 7.5, EDTA, 2 mM DTT, 37°C, per-animal values versus age, brain and lens in Figures 2 and 3

With `Cc1cc(=O)oc2cc(NC(=O)[C@H](CCC(=O)O)NC(=O)[C@H](CC(C)C)NC(=O)[C@H](CC(C)C)NC(=O)OCc3ccccc3)ccc12` [LLE, Z-Leu-Leu-Glu-AMC] (Cbz-Leu-Leu-Glu-{AMC}) the K m (peptidylglutamyl peptidase site (beta1)) was “Michaelis-Menten constants (K m) of the proteasome in rat liver versus age”.

With `Cc1cc(=O)oc2cc(NC(=O)[C@H](Cc3ccc(O)cc3)NC(=O)[C@@H](NC(=O)[C@H](CC(C)C)NC(=O)[C@H](CC(C)C)NC(=O)CCC(=O)O)C(C)C)ccc12` [LLVY, Suc-Leu-Leu-Val-Tyr-AMC] (Suc-LLVY-{AMC}) the K m (chymotrypsin-like site (beta5)) was “Michaelis-Menten constants (K m) of the proteasome in rat liver versus age”.

`Cc1cc(=O)oc2cc(NC(=O)[C@H](CCCNC(=N)N)NC(=O)CNC(=O)[C@@H](NC(=O)OC(C)(C)C)C(C)C)ccc12` [VGR, Boc-Val-Gly-Arg-AMC] (Boc-Val-Gly-Arg-{AMC}) was tested, and the K m (trypsin-like site (beta2)) was “Michaelis-Menten constants (K m) of the proteasome in rat liver versus age”.

From publication PMC2850129, “Changes in Activity and Kinetic Properties of the Proteasome in Different Rat Organs during Development and Maturation” (Current Gerontology and Geriatrics Research, 2010)
